In patent publication US20230265151A1, “GIP/GLP1 CO-AGONIST COMPOUNDS” (priority 2020, published 2023) one finds EC50, Emax and Ki data, which are given here for two compounds.

Read-outs that look alike come from different tables or passages of the source.

The target of one test is T1, hGCGR (Homo sapiens, UniProt P47871).
T1 construct: expressed in transfected cells
The experiment in a line: Functional cAMP formation (HTRF) in HEK-293 clonal cells expressing hGCGR, 0.1% bovine casein, without or with 1.0% human serum albumin. In kind it is cell-based. Particulars: read-out: hGCGR EC50, nM (SEM, n). The method, boiled down:
(§1)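 Readings of the HTRF 665/620 nm ratio, which falls as cAMP rises, were converted to nM cAMP using a standard curve after 30 min peptide exposure at 37° C.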

Another test deals with T2, hGIPR (Homo sapiens, UniProt P48546).
T2 construct: expressed in transfected cells
T2 sequence (P48546 22-466): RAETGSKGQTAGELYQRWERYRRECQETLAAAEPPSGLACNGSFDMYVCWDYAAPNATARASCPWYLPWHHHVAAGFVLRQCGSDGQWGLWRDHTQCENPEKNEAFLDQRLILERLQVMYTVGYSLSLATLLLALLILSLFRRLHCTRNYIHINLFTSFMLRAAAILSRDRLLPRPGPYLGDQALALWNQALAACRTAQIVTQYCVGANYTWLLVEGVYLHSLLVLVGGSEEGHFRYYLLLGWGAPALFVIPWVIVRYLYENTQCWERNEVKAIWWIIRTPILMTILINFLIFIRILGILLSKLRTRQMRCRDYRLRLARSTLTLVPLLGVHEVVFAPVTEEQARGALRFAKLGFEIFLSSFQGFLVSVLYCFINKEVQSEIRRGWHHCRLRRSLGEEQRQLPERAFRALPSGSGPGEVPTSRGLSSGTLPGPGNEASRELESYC
Kind of test: Functional cAMP formation (HTRF) in HEK-293 clonal cells expressing hGIPR, 0.1% bovine casein, without or with 1.0% human serum albumin. In kind it is cell-based. Particulars: for Emax: read-out: hGIPR Emax, % ± SEM; for EC50: cAMP, 0.1% bovine casein (no human serum albumin), geometric mean, read-out: hGIPR EC50, nM (SEM, n). The method, boiled down: as §1

The target in test [1] is T3, human GLP-1 receptor (hGLP-1R) (Homo sapiens, UniProt P43220).
T3 construct: expressed in transfected cells; crude membranes
The experiment in a line: [125I]-GLP-1 binding, SPA with membranes of HEK293 cells expressing hGLP-1R. Conditions: human GLP-1R; geometric mean (SEM, n); read-out: Binding Affinity Ki, nM (SEM, n) hGLP-1R. The method, then: Two methods are used for the preparation of crude cell membranes.
Method 1: Frozen cell pellets are lysed on ice in hypotonic buffer containing 50 mM Tris HCl, pH 7.5, and Roche Complete™ Protease Inhibitors with EDTA. […] The homogenate is centrifuged at 4° C. at 1100 × g for 10 minutes. The supernatant is collected and stored on ice while the pellets are resuspended in homogenization buffer and rehomogenized as described above. The homogenate is centrifuged at 1100 × g for 10 minutes. The second supernatant is combined with the first supernatant and centrifuged at 35000 × g for 1 hour at 4° C. The resulting membrane pellet is resuspended in homogenization buffer containing protease inhibitors at approximately 1 to 3 mg/mL, quick frozen in liquid nitrogen and stored as aliquots in a -80° C. freezer until use.
The homogenate is centrifuged at 4° C. at 1800 × g for 15 minutes. The supernatant is collected and stored on ice while the pellets are resuspended in homogenization buffer (without DNAse I) and rehomogenized as described above. The homogenate is centrifuged at 1800 × g for 15 minutes. The second supernatant is combined with the first supernatant and centrifuged an additional time at 1800 × g for 15 minutes. The overall supernatant is then centrifuged at 25000 × g for 30 minutes at 4° C. The resulting membrane pellet is resuspended in homogenization buffer (without DNAse I) containing protease inhibitors at approximately 1 to 3 mg/mL and stored as aliquots in a -80° C. freezer until use.
The human GLP-1 receptor binding assay is performed using an SPA format with WGA beads. The binding buffer contains 25 mM HEPES, pH 7.4, 2.5 mM CaCl2, 1 mM MgCl2, 0.1% (w/v) bacitracin, 0.003% (w/v) TWEEN®-20, and Roche Complete™ Protease Inhibitors without EDTA.
Raw CPM data for concentration curves of peptides, Gcg, GLP-1, or GIP are converted to percent inhibition by subtracting nonspecific binding (binding in the presence of excess unlabeled Gcg, GLP-1, or GIP, respectively) from the individual CPM values and dividing by the total binding signal, also corrected by subtracting nonspecific binding. Data are analyzed using four-parameter (curve maximum, curve minimum, IC50, Hill slope) nonlinear regression routines (Genedata Screener, version 12.0.4, Genedata AG, Basal, Switzerland). […] Values for Ki are reported as the geometric mean, with error expressed as the standard error of the mean (SEM) and n is equal to the number of independent replicates (determined in assays performed on different days). Geometric Means are calculated as follows: […]
The Ki Ratio (Ki for native control peptide/Ki for test compound) at each receptor and each species is calculated. The Ki Ratio is a rapid indication of the apparent affinity of a peptide compared to the native control peptide.
n=⅟x means that only one value out of the total number of replicates (x) is used to express the mean. SEM is only calculated when n=2 or greater non-qualified results exist. Means are expressed as GeoMetric means with the standard error of the mean (SEM) and the number of replicates (n) indicated in parenthesis.

Another test deals with hGLP-1R (Homo sapiens, UniProt P43220). The experiment in a line: Functional cAMP formation (HTRF) in HEK-293 clonal cells expressing hGLP-1R, 0.1% bovine casein, without or with 1.0% human serum albumin. In kind it is cell-based. Also noted: expressed in transfected cells. Particulars: 37° C.; for EC50: cAMP, read-out: hGLP-1R EC50, nM (SEM, n). The method, boiled down:
as §1

T1 sequence (P47871 26-477): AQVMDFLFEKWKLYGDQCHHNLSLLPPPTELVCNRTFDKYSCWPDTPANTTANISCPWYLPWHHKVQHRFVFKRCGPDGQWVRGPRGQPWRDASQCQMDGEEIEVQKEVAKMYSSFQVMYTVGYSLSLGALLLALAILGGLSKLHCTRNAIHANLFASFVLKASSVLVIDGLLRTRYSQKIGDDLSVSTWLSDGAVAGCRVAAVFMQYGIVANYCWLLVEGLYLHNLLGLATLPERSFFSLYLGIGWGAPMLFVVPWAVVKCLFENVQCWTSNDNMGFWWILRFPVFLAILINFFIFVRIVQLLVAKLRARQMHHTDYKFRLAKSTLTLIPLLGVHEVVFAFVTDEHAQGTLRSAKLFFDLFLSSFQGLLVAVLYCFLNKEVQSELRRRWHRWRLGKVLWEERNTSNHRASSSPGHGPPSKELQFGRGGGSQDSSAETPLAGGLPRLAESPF
Chain of hGLP-1R (P43220 24-463): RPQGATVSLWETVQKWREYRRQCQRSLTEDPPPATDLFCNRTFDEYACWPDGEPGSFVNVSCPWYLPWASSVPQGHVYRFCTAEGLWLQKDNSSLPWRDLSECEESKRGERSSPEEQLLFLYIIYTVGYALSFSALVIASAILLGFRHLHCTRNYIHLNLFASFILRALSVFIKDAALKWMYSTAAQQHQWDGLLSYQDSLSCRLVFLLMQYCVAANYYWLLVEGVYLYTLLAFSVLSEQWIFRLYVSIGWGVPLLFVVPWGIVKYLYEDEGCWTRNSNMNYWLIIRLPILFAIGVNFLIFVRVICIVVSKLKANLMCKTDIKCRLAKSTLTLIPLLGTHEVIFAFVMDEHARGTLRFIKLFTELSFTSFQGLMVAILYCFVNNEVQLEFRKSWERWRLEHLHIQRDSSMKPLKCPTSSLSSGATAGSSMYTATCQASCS
T3 sequence (P43220 24-463): as above

In the case of `CCCCCCCCCCCC(=O)N[C@@H](CCC(=O)NCCOCCOCC(=O)NCCOCCOCC(=O)NCCOCCOCC(=O)NCCCC[C@H](NC(=O)[C@H](CCCN)NC(=O)[C@H](CC(=O)O)NC(=O)[C@H](CC(C)C)NC(=O)[C@](C)(CC(C)C)NC(=O)[C@@H](NC(=O)C(C)(C)NC(=O)[C@H](Cc1ccncc1)NC(=O)[C@H](CC(=O)O)NC(=O)[C@H](CO)NC(=O)[C@@H](NC(=O)[C@](C)(Cc1ccccc1F)NC(=O)[C@@H](NC(=O)CNC(=O)[C@H](CCC(=O)O)NC(=O)C(C)(C)NC(=O)[C@@H](N)Cc1ccc(O)cc1)[C@@H](C)O)[C@@H](C)O)[C@@H](C)CC)C(=O)N[C@@H](C)C(=O)N[C@@H](CCC(N)=O)C(=O)NC(C)(C)C(=O)N[C@@H](CCCN)C(=O)N[C@@H](Cc1ccccc1)C(=O)N[C@H](C(=O)N[C@H](CCC(=O)O)C(=O)N[C@@](C)(Cc1ccc(O)cc1)C(=O)N[C@@H](CC(C)C)C(=O)N[C@H](C(=O)N[C@@H](CCCCNC(=O)COCCOCCNC(=O)COCCOCCNC(=O)COCCOCCNC(=O)CC[C@H](NC(=O)CCCCCCCCCCC)C(=O)O)C(=O)NCC(=O)NCC(=O)N1CCC[C@H]1C(=O)N[C@@H](CO)C(=O)N[C@@H](CO)C(=O)NCC(=O)N[C@@H](C)C(=O)N1CCC[C@H]1C(=O)N1CCC[C@H]1C(=O)N1CCC[C@H]1C(=O)N[C@@H](CO)C(N)=O)[C@@H](C)CC)[C@@H](C)CC)C(=O)O` [Example 434], the EC50 is above 9950 nM on hGCGR (cAMP, 37° C., 0.1% bovine casein (no human serum albumin), geometric mean); above 9950 nM at hGCGR (cAMP, 37° C., 0.1% bovine casein and 1.0% human serum albumin, geometric mean (SEM, n)); 0.00704 nM on hGIPR (37° C.); 0.0837 nM at hGLP-1R (0.1% bovine casein (no human serum albumin), geometric mean); 1.73 nM on hGLP-1R (0.1% bovine casein and 1.0% human serum albumin, geometric mean (SEM, n)). The Emax is 97.5% at hGIPR (HEK293, cAMP, 37° C., 0.1% bovine casein and 1.0% human serum albumin, percent of maximal response to GIP(1-42)NH2); 98.3% at hGIPR (HEK293, cAMP, 37° C., 0.1% bovine casein, percent of maximal response to GIP(1-42)NH2, arithmetic mean). The Ki in test [1] is 0.15 nM.
In the case of `CC[C@H](C)[C@H](NC(=O)[C@H](CC(C)C)NC(=O)[C@](C)(Cc1ccc(O)cc1)NC(=O)[C@@H](CCC(=O)O)NC(=O)[C@@H](NC(=O)[C@H](Cc1ccccc1)NC(=O)[C@H](CCC(=O)O)NC(=O)C(C)(C)NC(=O)[C@H](CCC(N)=O)NC(=O)[C@H](C)NC(=O)[C@H](CCCCNC(=O)COCCOCCNC(=O)COCCOCCNC(=O)CC[C@H](NC(=O)CCCCCCCCCCCCC(=O)O)C(=O)O)NC(=O)[C@H](CCCN)NC(=O)[C@H](CC(=O)O)NC(=O)[C@H](CC(C)C)NC(=O)[C@](C)(CC(C)C)NC(=O)[C@@H](NC(=O)[C@](C)(CO)NC(=O)[C@H](Cc1ccc(O)cc1)NC(=O)[C@H](CC(=O)O)NC(=O)[C@H](CO)NC(=O)[C@@H](NC(=O)[C@](C)(Cc1ccccc1F)NC(=O)[C@@H](NC(=O)CNC(=O)[C@H](CCC(=O)O)NC(=O)C(C)(C)NC(=O)[C@@H](N)Cc1ccc(O)cc1)[C@@H](C)O)[C@@H](C)O)[C@@H](C)CC)[C@@H](C)CC)C(=O)N[C@@H](CCC(=O)O)C(=O)NCC(=O)NCC(=O)N[C@@H](CCCCNC(=O)COCCOCCNC(=O)COCCOCCNC(=O)CC[C@H](NC(=O)CCCCCCCCCCCCC(=O)O)C(=O)O)C(=O)N[C@@H](CO)C(=O)N[C@@H](CO)C(=O)NCC(=O)N[C@@H](C)C(=O)N1CCC[C@H]1C(=O)N1CCC[C@H]1C(=O)N1CCC[C@H]1C(=O)N[C@@H](CO)C(N)=O` [Example 49], the EC50 on hGCGR (0.1% bovine casein and 1.0% human serum albumin, 37° C., geometric mean) was above 9950 nM; at hGCGR (cAMP, incubated at 37° C., 0.1% bovine casein (no human serum albumin), geometric mean), above 9950 nM; at hGIPR (incubated at 37° C.) it was 0.0205 nM. Moreover, the Emax on hGIPR (HEK293, 0.1% bovine casein and 1.0% human serum albumin, 37° C., percent of maximal response to GIP(1-42)NH2) amounted to 92.4 ± 4.07%; on hGIPR (HEK293, percent of maximal response to GIP(1-42)NH2, 37° C., 0.1% bovine casein, arithmetic mean), 91 ± 1.7%; on hGLP-1R (HEK293, percent of maximal response to GLP-1(7-36)NH2, 0.1% bovine casein, arithmetic mean, read-out: hGLP-1R Emax, % ± SEM) it was 97.3 ± 5.46%. Further, the Ki in test [1] was 1.21 nM.
